Test results from patent publication US11970497B2, “Tricyclic AKR1C3 dependent KARS inhibitors” (Novartis AG, priority 2019, dated 2024).

Experiments:
[1] = tested on: NCI-H460 human lung cancer xenograft; test: In vivo efficacy in NCI-H460 xenograft; parameters: species or system mice; conditions: for ΔT/ΔC: qd, Day 18
Method: Compound 40 Dose Dependent In Vivo Efficacy in the KEAP1 Mutant and Moderately AKR1C3 Expressing Human Lung Cancer Xenograft NCI-H460
Anti-cancer efficacy of Compound 40 was assessed in the NCI-H460 human lung cancer xenograft model in mice that expresses moderate levels of AKR1C3. NCI-H460 tumors were established in nude female mice by injection of a tumor cells subcutaneously. When tumors reached approximately 200 mm^3, mice were randomized according to tumor volume into treatment groups (n=7 per group) on Day 8.

[2] = tested on: NCI-H1944 (KEAP1 mutant, AKR1C3 expressing) cell line derived lung cancer xenografts; test: PK/PD in NCI-H1944 xenograft (tumor DDIT3 and EGR1 mRNA induction); format: in vivo, mice; conditions: single oral administration
Method: Compound 40 Dose Dependent Pharmacokinetics and Pharmacodynamic (PK/PD) Changes in the KEAP1 Mutant AKR1C3 Expressing Human Lung Cancer Xenograft NCI-H1944
The PK/PD relationship of Compound 40 was assessed in nude mice with established subcutaneous NCI-H1944 (KEAP1 mutant, AKR1C3 expressing) cell line derived lung cancer xenografts (FIG. 2). After a single oral administration of Compound 40, blood and tumor were collected to explore the PK profile of Compound 40 levels in blood and tumor. Compound 152, the active metabolite of the prodrug Compound 40 that inhibits KARS was also measured in tumor and blood. The PK data were compared to the tumor PD marker readouts of DDIT3 and EGR1 mRNA induction, downstream transcriptional readouts of KARS inhibition.

Human KARS = biological target: T1, Human KARS (Homo sapiens, UniProt Q15046); test: KARS AMP Transcreener FP assay; format: biochemical; conditions: 50 nM human KARS, 20 μM ATP, 50 μM L-Lysine, 1 μM tRNA, 2 h at RT; read-out: Human KARS Transcreener AMP assay Qualified absolute AC50
T1 construct: Human KARS protein (residues 70-584) was expressed and purified; made in house
T1 sequence (Q15046 70-584): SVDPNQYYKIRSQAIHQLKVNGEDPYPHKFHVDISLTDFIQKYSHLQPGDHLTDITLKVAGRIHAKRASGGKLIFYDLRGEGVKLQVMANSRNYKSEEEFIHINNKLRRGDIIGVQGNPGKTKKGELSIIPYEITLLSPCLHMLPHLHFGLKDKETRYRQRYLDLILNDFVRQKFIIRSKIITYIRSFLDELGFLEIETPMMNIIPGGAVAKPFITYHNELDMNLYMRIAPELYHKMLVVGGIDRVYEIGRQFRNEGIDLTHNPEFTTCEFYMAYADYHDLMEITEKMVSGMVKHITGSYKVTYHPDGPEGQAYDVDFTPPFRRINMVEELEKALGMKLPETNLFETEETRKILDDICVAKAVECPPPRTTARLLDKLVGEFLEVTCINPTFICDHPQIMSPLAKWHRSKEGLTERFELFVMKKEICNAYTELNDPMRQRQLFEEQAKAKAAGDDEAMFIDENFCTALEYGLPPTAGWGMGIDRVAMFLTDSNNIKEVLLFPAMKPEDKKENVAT
Text: KARS AMP Transcreener FP Assay to Measure Inhibition of KARS Enzymatic Activity
Lysine-tRNA synthetase (KARS) is an enzyme that catalyzes the reaction of ATP, L-lysine, and tRNA(Lys) to form AMP, diphosphate, and L-lysyl-tRNA(Lys).
The Transceener® AMP/GMP (BellBrook Labs, Madison, WI, USA) is a far red, competitive fluorescence polarization (FP) immunoassay based on the detection of AMP, which is one of the products of aminoacylation of tRNA. In this assay, a fluorescently labeled AMP (AMP Alexa Fluor 633) is used as the tracer that can be recognized by a specific antibody. In the absence of AMP, all the tracer molecules are bound to the antibodies leading to large polarization. The AMP product generated by the enzyme reaction will compete with the tracer for binding to the antibody which leads to a decrease in the polarization. As such, the enzyme activity is inversely proportional to FP values.
Human KARS protein (residues 70-584) was expressed and purified using a similar protocol to what is described in literature (Crystal structure of tetrameric form of human lysyl-tRNA synthetase: Implications for multisynthetase complex formation Guo, M., Ignatov, M., Musier-Forsyth, K., Schimmel, P., Yang, X. L. (2008) Proc. Natl. Acad. Sci. Usa 105: 2331-2336).
The KARS enzyme assay was performed in a final volume of 10 μL per well of Corning Costar 384 well plate, flat bottom, black non-treated plate. The final assay concentration was 20 mM HEPES pH 7.5, 1 mM DTT, 50 nM human KARS, 20 μM ATP, 50 μM L-Lysine, 1 μM tRNA and 8 mM MgCl2. Compounds were serial diluted 1:3 in DMSO in a master plate to generate a 10 concentration points dose response with maximum concentration of 10 mM. 50 nL from compound master plate were spotted in each well of a 384 black plate (Corning 3573), and 5 μL of enzyme mixture containing 100 nM KARS diluted in assay buffer (20 mM HEPES pH 7.5 and 1 mM OTT) were added. The reaction was started by adding 5 μL of the substrate mixture containing 40 μM ATP (final 20 μM ATP), 100 μM L-Lysine (final 50 μM), 2 μM tRNA (final 1 μM), 16 mM MgCl2 (final 8 mM MgCl2) diluted in assay buffer (20 mM HEPES pH 7.5 and 1 mM OTT). The mixtures were mixed and incubated for 2 h at RT before the termination of the reaction.
Transcreener® stop and detection buffers were prepared (1× stop buffer [final: 0.5×], 2 nM Tracer [final: 1 nM] and 5 μg/ml anti-AMP antibody [final: 2.5 μg/ml] in deionized water) and 10 μL of the stop and detection mix were added to the reaction wells, mixed for a minute and centrifuged at 1000 rpm for 10 seconds. The plates were read after incubating at RT for 30-60 min using Infinite® M1000 with the following settings: Excitation wavelength: 635 nm; Emission wavelength: 680 nm. FP values of DMSO controls were used to normalize the data and calculate IC50s of compounds using the Helios Software suite.

- AC50 (Human KARS): > 10 µM
SMILES: O=C1CC2(CCN(C(=O)NCc3ccc(F)cc3)CC2)Nc2ccc(F)cc21 [Example 40]
- Tumor response ([1]; 75 mg/kg qd): clear reduction in efficacy
- ΔT/ΔC ([1]; 75 mg/kg, po): 25.9%
- Tumor response ([1]; 150 mg/kg qd): some reduction in efficacy
- ΔT/ΔC ([1]; 150 mg/kg, po): 5.6%
- ΔT/ΔC ([1]; 300 mg/kg po): 1.8%
- Tumor response ([1]; 300 mg/kg qd): Tumor stasis
- duration of the induction of DDIT3 and EGR1 mRNA levels ([2]; dose escalation, NCI-H1944 xenografts): increased with dose escalation
- tumor PD markers (DDIT3 and EGR1 mRNA induction) after dosing ([2]; nude mice with NCI-H1944 xenografts): remained elevated for 24 hours post-dose
